What is called IC50 is the point on the concentration scale where inhibition reaches its midpoint.

We go through ten compounds from patent US20240262817A1, “QUINAZOLINE DERIVATIVES TARGETING R(CCUG) REPEATS IN MYOTONIC DYSTROPHY TYPE 2” (University of Florida Research Foundation, Incorporated, priority 2021, published 2024).

Data set [1] concerns r(CCUG)12-MBNL1 complex. Nature of the data set: TR-FRET assay, disruption of pre-formed r(CCUG)12-MBNL1 complex. In kind it is biochemical. As to conditions: in vitro, read-out: IC50 for disrupting an r(CCUG)12-MBNL1 complex. An excerpt: Of the 44 hits, 38 contained a similar substituted N2-phenylquinazoline-2,4-diamine core, while the other hits contained benzimidazoles and indazoles (Figure S2). Importantly, these 44 compounds are drug-like as they have similar physicochemical properties to the rest of the library and to known-drugs in Drug Bank (FIG. 2A). On average, the 44 hit compounds have a molecular weight of 327±35 g/mol, a cLogP of 3.2±0.9. TPSA of 76±15 Å, and 2.5±0.9 hydrogen bond donors. The in vitro potencies (IC50s) of the 44 compounds were then measured in the TR-FRET assay, affording seven compounds (1-7) with IC50s <50 μM (highlighted in red in FIGS. 2B & 2C).
In vitro IC50 measurements: IC50 measurements for disruption of r(CCUG)12-MBNL1 complex was completed using a previously reported TR-FRET assay with minor modifications.^23, 24 Briefly, 5′-biotinylated r(CCUG)12 (SEQ ID NO: 15) was folded in 1× Folding Buffer (20 mM HEPES, pH 7.5, 110 mM KCl, and 10 mM NaCl) at 60° C. for 5 min then cooled to room temperature. The buffer was adjusted to 1× Assay Buffer (20 mM HEPES, pH 7.5, 110 mM KCl, 10 mM NaCl, 2 mM MgCl2, 2 mM CaCl2), 5 mM DTT. 0.1% BSA, and 0.5% Tween-20).
Next, MBNL1-His6 was added, and the samples were incubated at room temperature for 15 min. […] The samples were incubated for 30 min at room temperature and added to a white 384-well plate, where TR-FRET was measured on a Molecular Devices SpectraMax M5 plate reader using an excitation wavelength of 345-nm and a 420-nm cutoff. The ratios of fluorescence intensity at 545 and 665 nm were calculated, and ratios in the absence of a compound and in the absence of RNA were used to calculate percent disruption. […]
[formula] • where y is ratio of fluorescence intensities at 545 nm and 665 nm (F545/F665), x is the concentration of a compound, B is F545/F665 value at max FRET effect (solution has RNA and protein but no compound added); A is F545/F665 value at min FRET effect (solution has antibodies but no RNA, protein, or compound); and the IC50 is the concentration of a compound where half of the protein is displaced by a compound.
On the technique in general: In TR-FRET formats the signal depends on donor and acceptor labels being close together.

Data set [2] deals with r(GACAGCCUGCUGUC)2 duplex, RNA containing a single 2×2 CU/UC internal loop. Nature of the data set: NMR spectroscopy (WaterLOGSY, 1D) of binding to RNA with one 2×2 CU/UC internal loop. An excerpt: The binding 1-7 an RNA containing a single 2×2 CU/UC was further studied by NMR spectroscopy. […] Aromatic protons of the unbound RNA were assigned via a 2D NOESY spectrum (Figure S7).
NMR samples preparation: A self-complementary RNA construct, r(5′-GACAGCCUGCUGUC-3′), SEQ ID NO:12, was purchased from GE Healthcare Dharmacon, Inc., deprotected according to the manufacturer's recommended protocol, and desalted with PD-10 columns (GE Healthcare, cat: 17-0851-01) also per the manufacturer's protocol. RNA samples were dissolved in NMR Buffer [10 mM KH2PO4/K2HPO4 and 0.05 mM EDTA (pH 6.0)] and folded by heating to 95° C. for 3 min and slowly cooling to room temperature.
NMR spectroscopy: NMR spectra were acquired at 25° C. on Bruker Avance III 600 and 700 MHZ spectrometers equipped with cryoprobes. 1D NMR spectra were acquired on samples containing 100 μM of RNA alone in 100% D20. Compounds 38, 40, 41, and 42 were each titrated into separate samples at 0.5, 1.0, 1.5, and 2.0 compound: RNA molar ratios. WaterLOGSY (water-ligand observed via gradient spectroscopy) spectra^29 were acquired on samples containing 300 μM of each compound alone or in the presence of 15 μM of RNA at a 20:1 compound:RNA ratio in H2O, to which D2O was added to 5% by volume. WaterLOGSY spectra were phased to give negative NOEs for non-binders. […]

Data set [3] relates to IR exon 11 alternative splicing in DM2 patient-derived fibroblasts. Put plainly: Rescue of IR exon 11 splicing via RT-PCR in DM2 fibroblasts. In kind it is cell-based. As for the experimental part: (§1) Cell lines and cell culture: Compounds were tested in two cell lines: (i) DM2 patient-derived fibroblasts (generous gift from University of Florida, Center for NeuroGenetics) and (ii) fibroblasts from a healthy donor (wild-type; WT GM07492; Coriell Institute). Cells were maintained at 37° ° C. with 5% CO2. DM2 fibroblasts were cultured in DMEM/high glucose (HyClone) supplemented with 20% FBS (Sigma) and 1% Antibiotic-Antimycotic solution (Corning). Wild-type fibroblasts were cultured in MEM (Corning) supplemented with 10% FBS, 1% Glutagro (Corning), and 1% Antibiotic-Antimycotic solution.
Evaluation of pre-mRNA splicing via RT-PCR: Pre-mRNA splicing was analyzed as previously described.^10 Briefly, cells were grown in 6-well plates and treated with the desired compound in growth medium at ˜40% confluency. After 48 h, the cells were lysed, and total RNA was harvested using a Zymo Quick RNA Miniprep Kit. Approximately 1 μg of total RNA was reverse transcribed using a qScript cDNA synthesis kit (20 μL of total reaction volume, Quanta BioSciences); 2 μL of the RT reaction was used for PCR using GoTaq DNA polymerase (Promega). RT-PCR products were observed after 35 cycles of 95° C. for 30 s, 58° C. for 30s, 72 °C for 1 min, and a final extension at 72° C. for 5 min. Products were separated on a 2% agarose gel (110 V for 1 h in 13TBE buffer), visualized by staining with ethidium bromide, and imaged using a Typhoon 9410 variable mode imager. Gels were quantified using ImageJ. Percent rescue was calculated by dividing the difference between treated and untreated DM2 samples by the difference between untreated DM2 and WT samples (Equation 2).

The test system of data set [4] is DM2 patient-derived fibroblasts. Put plainly: Cell viability by CellTiter-Glo. Type of data set: cell-based. As to conditions: for toxicity in DM2 patient-derived fibroblasts: at 5 μM; for toxicity as stated in legend of FIG. 3C: DM2 fibroblasts. The protocol:
as §1
Evaluation of cell viability: Compound toxicity in DM2 fibroblasts was evaluated using a CellTiter-Glo Kit (Promega) as described in the manufacturer's protocol. Briefly, after 48 h treatment in 96-wells plates, 100 μL of the CellTiter-Glo reagent was added to each well. The plate was then incubated at room temperature for 10 min, and luminescence was measured using BioTek FLX-800 luminescence plate reader (n=6 replicates; 1 independent experiment).
For orientation: Cellular ATP, detected with luciferase, serves as a proxy for viable cell number.

Turning to `OCCCNc1nc(Nc2ccc3c(c2)OCCO3)nc2ccccc12` [Compound 7, 3-((2-((2,3-dihydrobenzo[b][1,4]dioxin-6-yl)amino)quinazolin-4-yl)amino)propan-1-ol], in data set [1], the IC50 came to 48.2 ± 0.07 µM. Moreover, in data set [2] (compound added to RNA with one 2×2 CU/UC internal loop), the “shifts of RNA H6 and H8 proton resonances in 1D NMR, indicating binding” value is listed as “Significant shifts in resonances”. For the same compound, in data set [2] (positive phase signals in the presence of RNA), the “binding to the RNA by waterLOGSY spectra” value is recorded as “bound to the RNA”. For the same compound, the “rescue of IR splicing” value in data set [3] (at 1 μM dose, p=0.026) was 12±5. Besides, in data set [3] (at 5 μM), the “rescue of IR exon 11 splicing” value is on record as approximately 50%. In the case of `Cc1ccc2nc(Nc3ccc4nc(NCC(C)C)sc4c3)nc(NCCCO)c2c1` [Compound 73, 3-((2-((2-(isobutylamino)benzo[d]thiazol-6-yl)amino)-6-methylquinazolin-4-yl)amino)propan-1-ol], the “toxicity in DM2 patient-derived fibroblasts” value in data set [4] is listed as “significant toxicity”. On to `Cc1ccc2nc(Nc3ccc4nc(NCCN(C)C)sc4c3)nc(NCCCO)c2c1` [Compound 79, 3-((2-((2-((2-(dimethylamino)ethyl)amino)benzo[d]thiazol-6-yl)amino)-6-methylquinazolin-4-yl)amino)propan-1-ol], for which, in data set [4], the “toxicity as stated in legend of FIG. 3C” value is on record as “non-toxic” and the “toxicity in DM2 patient-derived fibroblasts” value is given as “no toxicity”. Moreover, the “rescue of IR splicing” value in data set [3] (any concentration studied) is recorded as “did not significantly rescue splicing”.

In the case of `Cc1ccc2nc(Nc3ccc4nc(N5CCOCC5)sc4c3)nc(NCCCO)c2c1` [Compound 72, 3-((6-methyl-2-((2-morpholinobenzo[d]thiazol-6-yl)amino)quinazolin-4-yl)amino)propan-1-ol], in data set [4], the “toxicity in DM2 patient-derived fibroblasts” value is “significant toxicity”.

`Cc1ccc2nc(Nc3ccc4c(c3)OCCO4)nc(NCCCO)c2c1` [Compound 58, 3-((2-((2,3-dihydrobenzo[b][1,4]dioxin-6-yl)amino)-6-methylquinazolin-4-yl)amino)propan-1-ol]: in data set [1], the IC50 was found to be 12.7 ± 0.2 µM. Regarding `Cc1ccc2nc(Nc3ccc4nc(NC5CCN(Cc6ccccc6)CC5)sc4c3)nc(NCCCO)c2c1` [Compound 71, 3-((2-((2-((1-benzylpiperidin-4-yl)amino)benzo[d]thiazol-6-yl)amino)-6-methylquinazolin-4-yl)amino)propan-1-ol], the “toxicity in DM2 patient-derived fibroblasts” value in data set [4] was “significant toxicity”. Consider `Cc1ccc2nc(Nc3ccc4nc(NCC(C)(C)O)sc4c3)nc(NCCCO)c2c1` [Compound 78, 3-((2-((2-((2-hydroxy-2-methylpropyl)amino)benzo[d]thiazol-6-yl)amino)-6-methylquinazolin-4-yl)amino)propan-1-ol], for which, in data set [4], the “toxicity in DM2 patient-derived fibroblasts” value is given as “no toxicity”. Moreover, in data set [3] (at 5 μM), the “improvement of IR splicing” value was “significantly improved IR splicing”. As for `Cc1ccc2nc(Nc3ccc4nc(N5CCN(C)CC5)sc4c3)nc(NCCCO)c2c1` [Compound 82, 3-((6-methyl-2-((2-(4-methylpiperazin-1-yl)benzo[d]thiazol-6-yl)amino)quinazolin-4-yl)amino)propan-1-ol], the “toxicity in DM2 patient-derived fibroblasts” value in data set [4] is recorded as “significant toxicity”. `Cc1ccc2nc(Nc3ccc4nc(N(CCO)CCO)sc4c3)nc(NCCCO)c2c1` [Compound 80, 2,2′-((6-((4-((3-hydroxypropyl)amino)-6-methylquinazolin-2-yl)amino)benzo[d]thiazol-2-yl)azanediyl)bis(ethan-1-ol)]: the “toxicity as stated in legend of FIG. 3C” value in data set [4] was “non-toxic”. For the compound `Cc1ccc2nc(Nc3ccc4nc(NCCN5CCOCC5)sc4c3)nc(NCCCO)c2c1` [Compound 74, 3-((6-methyl-2-((2-((2-morpholinoethyl)amino)benzo[d]thiazol-6-yl)amino)quinazolin-4-yl)amino)propan-1-ol], in data set [4], the “toxicity in DM2 patient-derived fibroblasts” value is reported as “significant toxicity”.
